Laboratory results published in PMC5976936 (2018).

What was measured:
[1] = system: G4_1-4 (DNA, G4) CCGGGGCGGGCCGGGGGCGGGGTC; experiment: ECD thermal melting; conditions: KCl concentration not stated for this experiment; 50 mM Tris-HCl pH 7.4; 10 µM TMPyP4, 5 µM DNA
[2] = system: G4mod1 (DNA, G4, 5-hydroxymethylcytosine at 7) CCGGGGCGGGCCGGGGGCGGGGTC; experiment: ECD thermal melting; conditions: KCl concentration not stated for this experiment; 50 mM Tris-HCl pH 7.4; 10 µM TMPyP4, 5 µM DNA

ΔTM [1]: 12 °C | ΔTM [2]: 12 °C
Structure (SMILES): C[n+]1ccc(-c2c3nc(c(-c4cc[n+](C)cc4)c4ccc([nH]4)c(-c4cc[n+](C)cc4)c4nc(c(-c5cc[n+](C)cc5)c5ccc2[nH]5)C=C4)C=C3)cc1
